# In ChEMBL document CHEMBL4325853, “Design, synthesis and antibacterial evaluation of 2,4-disubstituted-6-thiophenyl-pyrimidines” (Eur J Med Chem, 2019):
# Active and inactive are the calls of the source. No cut-off for these calls is given here.
# Columns and labels:
# [1] = system: Enterococcus faecium; assay: Antibacterial activity against Enterococcus faecium ATCC 49624 after 18 hrs by broth microdilution method; assay type: functional; conditions: ATCC 49624, 18 h
# [2] = system: Staphylococcus epidermidis; assay: Antibacterial activity against Staphylococcus epidermidis ATCC 12228 after 18 hrs by broth microdilution method; assay type: functional; conditions: ATCC 12228, 18 h
# [3] = system: Escherichia coli; assay: Antibacterial activity against Escherichia coli ATCC 25922 after 18 hrs by broth microdilution method; assay type: functional; conditions: ATCC 25922, 18 h
# [4] = system: Staphylococcus aureus; assay: Antibacterial activity against methicillin-resistant Staphylococcus aureus ATCC BAA41 after 18 hrs by broth microdilution method; assay type: functional; conditions: ATCC BAA41, 18 h
# [5] = system: Staphylococcus aureus; assay: Antibacterial activity against methicillin-resistant Staphylococcus aureus ATCC 33592 after 18 hrs by broth microdilution method; assay type: functional; conditions: ATCC 33592, 18 h
# [6] = system: Staphylococcus aureus; assay: Antibacterial activity against methicillin-resistant Staphylococcus aureus isolate 7917 after 18 hrs by broth microdilution method; assay type: functional; conditions: isolate 7917, 18 h
# [7] = system: Staphylococcus aureus; assay: Antibacterial activity against methicillin-resistant Staphylococcus aureus isolate 7247 after 18 hrs by broth microdilution method; assay type: functional; conditions: isolate 7247, 18 h
# [8] = system: Staphylococcus aureus; assay: Antibacterial activity against methicillin-resistant Staphylococcus aureus isolate 3096 after 18 hrs by broth microdilution method; assay type: functional; conditions: isolate 3096, 18 h
# [9] = system: Staphylococcus aureus; assay: Antibacterial activity against methicillin-resistant Staphylococcus aureus isolate 2491 after 18 hrs by broth microdilution method; assay type: functional; conditions: isolate 2491, 18 h
# [10] = system: Staphylococcus aureus; assay: Antibacterial activity against methicillin-resistant Staphylococcus aureus isolate 2931 after 18 hrs by broth microdilution method; assay type: functional; conditions: isolate 2931, 18 h
# [11] = system: Staphylococcus aureus; assay: Antibacterial activity against methicillin-resistant Staphylococcus aureus isolate 7863 after 18 hrs by broth microdilution method; assay type: functional; conditions: isolate 7863, 18 h
# [12] = system: Staphylococcus aureus; assay: Antibacterial activity against methicillin-resistant Staphylococcus aureus isolate 7947 after 18 hrs by broth microdilution method; assay type: functional; conditions: isolate 7947, 18 h
# [13] = system: Staphylococcus aureus; assay: Antibacterial activity against methicillin-resistant Staphylococcus aureus isolate 7813 after 18 hrs by broth microdilution method; assay type: functional; conditions: isolate 7813, 18 h
# [14] = system: Staphylococcus aureus; assay: Antibacterial activity against methicillin-resistant Staphylococcus aureus isolate 5426 after 18 hrs by broth microdilution method; assay type: functional; conditions: isolate 5426, 18 h
# [15] = system: Staphylococcus aureus; assay: Antibacterial activity against methicillin-resistant Staphylococcus aureus isolate 1651 after 18 hrs by broth microdilution method; assay type: functional; conditions: isolate 1651, 18 h
# [16] = system: Staphylococcus aureus; assay: Antibacterial activity against methicillin-resistant Staphylococcus aureus isolate 8179 after 18 hrs by broth microdilution method; assay type: functional; conditions: isolate 8179, 18 h
# [17] = system: Staphylococcus aureus; assay: Antibacterial activity against methicillin-resistant Staphylococcus aureus isolate 8071 after 18 hrs by broth microdilution method; assay type: functional; conditions: isolate 8071, 18 h
# [18] = system: Staphylococcus aureus; assay: Antibacterial activity against methicillin-resistant Staphylococcus aureus isolate 7916 after 18 hrs by broth microdilution method; assay type: functional; conditions: isolate 7916, 18 h
# [19] = system: Staphylococcus aureus; assay: Antibacterial activity against methicillin-resistant Staphylococcus aureus isolate 7682 after 18 hrs by broth microdilution method; assay type: functional; conditions: isolate 7682, 18 h
# [20] = system: Staphylococcus aureus; assay: Antibacterial activity against methicillin-resistant Staphylococcus aureus isolate 5239 after 18 hrs by broth microdilution method; assay type: functional; conditions: isolate 5239, 18 h
# [21] = system: Staphylococcus aureus; assay: Antibacterial activity against methicillin-resistant Staphylococcus aureus isolate 7536 after 18 hrs by broth microdilution method; assay type: functional; conditions: isolate 7536, 18 h
# [22] = system: Staphylococcus aureus; assay: Antibacterial activity against methicillin-resistant Staphylococcus aureus isolate 1708 after 18 hrs by broth microdilution method; assay type: functional; conditions: isolate 1708, 18 h
# [23] = system: Staphylococcus aureus; assay: Antibacterial activity against methicillin-resistant Staphylococcus aureus isolate 5035 after 18 hrs by broth microdilution method; assay type: functional; conditions: isolate 5035, 18 h
# [24] = system: Staphylococcus aureus; assay: Antibacterial activity against methicillin-resistant Staphylococcus aureus isolate 1947 after 18 hrs by broth microdilution method; assay type: functional; conditions: isolate 1947, 18 h
# [25] = system: Staphylococcus aureus; assay: Antibacterial activity against methicillin-resistant Staphylococcus aureus isolate 8078 after 18 hrs by broth microdilution method; assay type: functional; conditions: isolate 8078, 18 h
# [26] = molecular target: T1, Cell division protein FtsZ (Staphylococcus aureus) (UniProt P0A031); assay: Inhibition of recombinant Staphylococcus aureus FtsZ polymerization at 8 ug/ml by 90 degree light scattering-based fluorescence spectrometric analysis
# T1 sequence (whole entry): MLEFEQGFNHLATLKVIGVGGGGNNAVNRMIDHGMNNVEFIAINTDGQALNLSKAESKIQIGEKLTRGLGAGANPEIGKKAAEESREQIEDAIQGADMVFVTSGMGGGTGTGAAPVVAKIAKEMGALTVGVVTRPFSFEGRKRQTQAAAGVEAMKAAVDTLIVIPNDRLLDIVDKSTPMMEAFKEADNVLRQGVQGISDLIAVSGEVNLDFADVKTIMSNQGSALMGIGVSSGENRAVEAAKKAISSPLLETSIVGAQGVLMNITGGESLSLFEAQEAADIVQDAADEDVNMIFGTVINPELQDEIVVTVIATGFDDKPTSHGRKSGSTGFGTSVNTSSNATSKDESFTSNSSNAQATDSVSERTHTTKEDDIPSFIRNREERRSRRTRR
compound,measurement,setting,value
COc1cccc(OC)c1C(=O)N[C@@H]1C(=O)N2[C@@H]1SC(C)(C)[C@@H]2C(=O)O [METHICILLIN],MIC90,[1],4 µg/mL
same,MIC90,[2],0.5 µg/mL
same,MIC90,[3],4 µg/mL
same,MIC90,[4],> 192 µg/mL
same,MIC90,[5],> 192 µg/mL
same,MIC90,[6],> 64 µg/mL
same,MIC90,[7],> 64 µg/mL
same,MIC90,[8],> 64 µg/mL
same,MIC90,[9],> 64 µg/mL
same,MIC90,[10],> 64 µg/mL
same,MIC90,[11],> 64 µg/mL
same,MIC90,[12],> 64 µg/mL
same,MIC90,[13],> 64 µg/mL
same,MIC90,[14],> 64 µg/mL
same,MIC90,[15],> 64 µg/mL
same,MIC90,[16],> 64 µg/mL
same,MIC90,[17],> 64 µg/mL
same,MIC90,[18],> 64 µg/mL
same,MIC90,[19],> 64 µg/mL
same,MIC90,[20],> 64 µg/mL
same,MIC90,[21],> 64 µg/mL
same,MIC90,[22],> 64 µg/mL
same,MIC90,[23],> 64 µg/mL
same,MIC90,[24],> 64 µg/mL
same,MIC90,[25],> 64 µg/mL
same,inhibition,[26],inactive
